pEC50: −log10 of the molar value. ≈ marks a conversion by molar mass, not a printed value. Where “and” joins values, the source holds several entries; their conditions need not be identical. Equal values may be shown once. Where a name gives a salt, the structure may show the parent alone. Read-outs that look alike come from different tables or passages of the source.
Columns and labels:
PL^pro = PL^pro (Severe acute respiratory syndrome coronavirus 2, UniProt P0DTD1); conditions: 20 μM compound, 5 μM enzyme, average of triplicates with SD
SARS-CoV-2 [1] = conditions: for CoV2 Efficacy (delta S0:Sinf): HeLa-ACE2; for Data Mode: Hela-ACE2 % Positive SARS-CoV-2; for S0 / Sinf / nHill: Hela-ACE2 % Positive SARS-CoV-2, curve fit
HeLa-ACE2 cells [2] = system: HeLa-ACE2 cells
[3] = system: uninfected HeLa-ACE2 cells; conditions: Hela-ACE2 Uninfected Cell Toxicity; for qAC50: relation in column qAC50 Mode, unit not given
[4] = female, BALB/c, mouse, 1 h, 2 μM, pH 7.4
HeLa-ACE2 cells [5] = assay: cells; conditions: Homo sapiens
in vitro [6] = conditions: human, uninfected HeLa-ACE2 cells
physchem [7] = conditions: pH 7.4
in vitro [8] = conditions: PAMPA
physchem [9] = conditions: 25 °C, kinetic from dmso stock
in vitro [10] = conditions: human, microsomes, pH 7.4
in vitro [11] = conditions: CD1, mouse, microsomes, pH 7.4
Plasma stability = conditions: female, BALB/c, mouse, plasma, pH 7.4
SARS-CoV-2 [12] = assay: microbe, parasite or virus in culture; conditions: for AC50: Severe acute respiratory syndrome coronavirus 2, HeLa-ACE2, read-out: Log AC50 (converted)
[13] = Human liver microsomal stability assay; conditions: human, liver microsomes, pH 7.4
[14] = Mouse liver microsomal stability assay; conditions: CD1, mouse, liver microsomes, pH 7.4
[15] = Hela-ACE2 CoV-2 Total Cell count
[16] = HeLa-ACE2, read-out: HeLa-ACE2 Total cells EC50
[17] = uninfected HeLa-ACE2 CC50, supplement summary
[18] = uninfected HeLa-ACE2 CC50, uninfected HeLa-ACE2 cells, average of triplicates
[19] = Severe acute respiratory syndrome coronavirus 2, HeLa-ACE2, read-out: SARS-CoV-2 EC50, HeLa-ACE2 cells, average of triplicates
[20] = Severe acute respiratory syndrome coronavirus 2, HeLa-ACE2, read-out: qAC50, Hela-ACE2 % Positive SARS-CoV-2, relation in column qAC50 Mode, unit inferred
[21] = Hela-ACE2 CoV-2 Total Cell count, curve fit

Row | SMILES | ΔT m (PL^pro) | CoV2 Efficacy (delta S0:Sinf) (SARS-CoV-2 [1]) | Data Mode (SARS-CoV-2 [1]) | S0 (SARS-CoV-2 [1]) | Sinf (SARS-CoV-2 [1]) | nHill (SARS-CoV-2 [1]) | Data Mode (HeLa-ACE2 cells [2]; [15]) | Data Mode [3] | qAC50 [3] | plasma stability remaining 60 min [4] | pEC50 (HeLa-ACE2 cells [5]; [16]) | chromatographic logD (physchem [7]) | Papp at 5 h, 10 μM (in vitro [8]) | solubility kinetic at 24 h (physchem [9]; pH 2, aqueous buffer) | solubility kinetic at 24 h (physchem [9]; pH 7.4, aqueous buffer) | microsomal CLint at 0.5 μM (in vitro [10]) | microsomal CLint at 0.5 μM (in vitro [11]) | half-life at 2 μM (Plasma stability) | half-life at 0.5 μM [13] | half-life at 0.5 μM [14] | further results
1 | Cc1ccc(CNC(=O)C2CCN([C@H](C)c3cccc4ccccc34)CC2)cc1 [Compound 4] | 7.98 °C and 7.9 ± 0.6 °C | 103.282 | decreasing (weakly active) | 3.282 | -100 | 1.703 | inactive | inactive | > 3.984e-5 | 58.47% | < 5.02 | 4.56 | 0.78 ×10⁻⁶ cm/s | > 24.2 µg/mL | 8.09 µg/mL (≈ 20.9 µM) | 78.4 µL/min/mg | 214 µL/min/mg | 385 min | 35.4 min | 13 min | pEC50 (HeLa-ACE2 cells [5]; HeLa-ACE2, read-out: qAC50): < 5.02; CC50 at 24 h (in vitro [6]; [17]): > 39.8 µM; CC50 at 24 h (in vitro [6]; [18]): > 39.8 µM; AC50 (SARS-CoV-2 [12]): > 9.61 µM; pEC50 (SARS-CoV-2 [12]; [19]): < 5.02; pEC50 (SARS-CoV-2 [12]; [20]): < 5.02
2 | COc1ccc(CNC(=O)[C@@H]2CCN([C@H](C)c3cccc4ccccc34)C2)cc1 (stereo in doubt) [Compound 18] |  |  |  |  |  |  |  |  |  | 56.69% |  | 4.24 | 0.56 ×10⁻⁶ cm/s | > 25.2 µg/mL | > 19.8 µg/mL | 212 µL/min/mg | 582 µL/min/mg | 462 min | 13.1 min | 4.76 min | 
3 | COc1ccc(C[C@H](N)C(=O)N[C@H]2[C@@H](O)[C@H](n3cnc4c(N(C)C)ncnc43)O[C@@H]2CO)cc1 [Puromycin dihydrochloride, reference compound] |  | 109.643 | decreasing | 10.0167 | -99.6259 | 4 | decreasing | decreasing | 5.784e-7 |  | 5.94 |  |  |  |  |  |  |  |  |  | SI (average CC50/average EC50) (SARS-CoV-2 [1]; supplement summary): 1.518; S0 (HeLa-ACE2 cells [2]; [21]): -17.6223; Sinf (HeLa-ACE2 cells [2]; [21]): -98.1852; nHill (HeLa-ACE2 cells [2]; [21]): 4; HeLa-ACE2 Total Cell Efficacy (Sinf, note + or -) (HeLa-ACE2 cells [2]; infected HeLa-ACE2 total cell count): 4.000; S0 ([3]; curve fit): -1.04; Sinf ([3]; curve fit): -99.1112; nHill ([3]; curve fit): 3.073; AC50 (HeLa-ACE2 cells [5]; HeLa-ACE2, read-out: Log AC50 (converted)): 1.14 µM; pEC50 (HeLa-ACE2 cells [5]; HeLa-ACE2, read-out: qAC50): 5.94; AC50 at 24 h (in vitro [6]): 0.578 µM; CC50 at 24 h (in vitro [6]; [17]): 0.578 µM; pEC50 (SARS-CoV-2 [12]; Severe acute respiratory syndrome coronavirus 2, HeLa-ACE2, read-out: CoV-2 EC50): 6.42; AC50 (SARS-CoV-2 [12]): 0.381 µM; pEC50 (SARS-CoV-2 [12]; Severe acute respiratory syndrome coronavirus 2, HeLa-ACE2, read-out: qAC50): 6.42
4 | Cc1ccc(CNC(=O)C2CCN([C@@H](C)c3cccc4ccccc34)CC2)cc1 (stereo in doubt) [Compound 5] | 5.57 °C and 5.57 ± 0.09 °C | 105.451 | decreasing (weakly active) | 5.451 | -100 | 2.548 | inactive | inactive | > 3.984e-5 | 33.79% | < 5.02 | 4.55 | 0.67 ×10⁻⁶ cm/s | > 25 µg/mL | 8.62 µg/mL (≈ 22.3 µM) | 152 µL/min/mg | 292 µL/min/mg | 239 min | 18.2 min | 9.48 min | pEC50 (HeLa-ACE2 cells [5]; HeLa-ACE2, read-out: qAC50): < 5.02; CC50 at 24 h (in vitro [6]; [17]): > 39.8 µM; CC50 at 24 h (in vitro [6]; [18]): > 39.8 µM; AC50 (SARS-CoV-2 [12]): > 9.61 µM; pEC50 (SARS-CoV-2 [12]; [19]): < 5.02; pEC50 (SARS-CoV-2 [12]; [20]): < 5.02
5 | COc1ccc(CNC(=O)[C@H]2CCN([C@H](C)c3cccc4ccccc34)C2)cc1 [Compound 16] | 0.40 ± 0.08 °C |  |  |  |  |  |  |  |  | 88.71% |  | 4.24 | 0.53 ×10⁻⁶ cm/s | > 24.6 µg/mL | > 19.5 µg/mL | 254 µL/min/mg | 267 µL/min/mg | 1730 min | 10.9 min | 10.4 min | 
